Experiments:
[1] = Measurement of logP values by HPLC on reversed phase columns (EEC directive 79/831 Annex V.A8); type: physicochemical; conditions: for LogP: method [a]: pH 2,7, 0.1% formic acid in water / acetonitrile, linear gradient 10% to 95% acetonitrile
Description: Measurement of logP values was performed according EEC directive 79/831 Annex V.A8 by HPLC (High Performance Liquid Chromatography) on reversed phase columns with the following methods:
^[a] Measurement of LC-MS was done at pH 2,7 with 0.1% formic acid in water and with acetonitrile (contains 0.1% formic acid) as eluent with a linear gradient from 10% acetonitrile to 95% acetonitrile.
Calibration was done with not branched alkan2-ones (with 3 to 16 carbon atoms) with known logP-values (measurement of logP values using retention times with linear interpolation between successive alkanones). lambda-maX-values were determined using UV-spectra from 200 nm to 400 nm and the peak values of the chromatographic signals.

Phytophthora infestans = type: in vivo; conditions: tomato plants, preventive spray, 100 ppm of active ingredient, evaluated 7 days after inoculation
Plasmopara viticola = experiment: Plasmopara test (grapevines) / preventive; type: in vivo; conditions: grapevine plants, preventive spray, 10 ppm of active ingredient, evaluated 6 days after inoculation
Description: Plasmopara Test (Grapevines)/Preventive
Solvent: 24.5 parts by weight of acetone • 24.5 parts by weight of dimethylacetamide
Emulsifier: 1 part by weight of alkylaryl polyglycol ether
To produce a suitable preparation of active compound, 1 part by weight of active compound is mixed with the stated amounts of solvent and emulsifier, and the concentrate is diluted with water to the desired concentration.
To test for preventive activity, young plants are sprayed with the preparation of active compound at the stated rate of application. After the spray coating has dried on, the plants are inoculated with an aqueous spore suspension of Plasmopara viticola and then remain for 1 day in an incubation cabinet at approximately 20° C. and a relative atmospheric humidity of 100%. The plant is subsequently placed for 4 days in a greenhouse at approximately 21° C. and a relative atmospheric humidity of approximately 90%.
The plants are then misted and placed for 1 day in an incubation cabinet.
The test is evaluated 6 days after the inoculation. 0% means an efficacy which corresponds to that of the untreated control, while an efficacy of 100% means that no disease is observed.

SMILES	LogP [1]	chromatographic logP ([1]; reversed phase HPLC columns, pH 2.7, HCOOH method, reported in preparation example)	Eff. % (Phytophthora infestans) [%]	Eff. % (Plasmopara viticola) [%]
CC1=NOC(C)(C(=O)Nc2cccc(CON=C(c3ccccc3)c3nnnn3C)n2)C1 (stereo not drawn) [Example 1]	2.84^[a]	–	–	–
Cn1nnnc1C(=NOCc1cccc(NC(=O)C2CC(c3ccccc3)=NO2)n1)c1ccccc1 (stereo not drawn) [Example 2]	3.51^[a]	–	–	–
Cn1nnnc1/C(=N\OCc1cccc(NC(=O)C2CC(c3ccccc3F)=NO2)n1)c1ccccc1 (stereo not drawn) [Example 3, 3-(2-fluorophenyl)-N-{6-[({[(Z)-(1-methyl-1H-tetrazol-5-yl)(phenyl)methylene]amino}oxy)methyl]pyridin-2-yl}-4,5-dihydro-1,2-oxazole-5-carboxamide]	–	3.5	93	74
Cc1nnnn1C(=NOCc1cccc(NC(=O)C2CC(c3ccccc3F)=NO2)n1)c1ccccc1 (stereo not drawn) [Example 4]	3.59^[a]	–	95	–
Cn1nnnc1C(=NOCc1cccc(NC(=O)C2(C)CC(c3ccccc3)=NO2)n1)c1ccccc1 (stereo not drawn) [Example 5]	3.87^[a]	–	89	–
Cc1nnnn1C(=NOCc1cccc(NC(=O)C2(C)CC(c3ccccc3)=NO2)n1)c1ccccc1 (stereo not drawn) [Example 6]	3.94^[a]	–	95	85
CC1=NOC(C)(C(=O)Nc2nc(CON=C(c3ccccc3)n3nnnc3C)cs2)C1 (stereo not drawn) [Example 7]	2.73^[a]	–	–	–
Cc1nnnn1C(=NOCc1csc(NC(=O)C2CC(c3ccccc3)=NO2)n1)c1ccccc1 (stereo not drawn) [Example 8]	3.35^[a]	–	95	–
CC1=NOC(C)(C(=O)Nc2nc(CON=C(c3ccccc3)c3nnnn3C)cs2)C1 (stereo not drawn) [Example 9]	2.69^[a]	–	85	–
Cn1nnnc1C(=NOCc1csc(NC(=O)C2CC(c3ccccc3)=NO2)n1)c1ccccc1 (stereo not drawn) [Example 10]	3.31^[a]	–	93	–
Cn1nnnc1C(=NOCc1csc(NC(=O)C2CC(c3ccccc3F)=NO2)n1)c1ccccc1 (stereo not drawn) [Example 11]	3.29^[a]	–	95	–
Cc1nnnn1C(=NOCc1csc(NC(=O)C2CC(c3ccccc3F)=NO2)n1)c1ccccc1 (stereo not drawn) [Example 12]	3.31^[a]	–	95	–
Cn1nnnc1C(=NOCc1csc(NC(=O)C2(C)CC(c3ccccc3)=NO2)n1)c1ccccc1 (stereo not drawn) [Example 13]	3.6^[a]	–	100	97
Cc1nnnn1C(=NOCc1csc(NC(=O)C2(C)CC(c3ccccc3)=NO2)n1)c1ccccc1 (stereo not drawn) [Example 14]	3.64^[a]	–	95	92
Cn1nnnc1C(=NOCc1csc(NC(=O)C2CC(c3ccccc3Cl)=NO2)n1)c1ccccc1 (stereo not drawn) [Example 15]	3.48^[a]	–	90	–
CC1=NOC(C(=O)Nc2nc(CON=C(c3ccccc3)c3nnnn3C)cs2)C1 (stereo not drawn) [Example 16]	2.35^[a]	–	93	–
Cn1nnnc1C(=NOCc1csc(NC(=O)C2CC(c3cc(F)ccc3F)=NO2)n1)c1ccccc1 (stereo not drawn) [Example 17]	3.39^[a]	–	95	–
CC(C)C1=NOC(C(=O)Nc2nc(CON=C(c3ccccc3)c3nnnn3C)cs2)C1 (stereo not drawn) [Example 18]	2.92^[a]	–	93	–
CCC1=NOC(C(=O)Nc2nc(CON=C(c3ccccc3)c3nnnn3C)cs2)C1 (stereo not drawn) [Example 19]	2.64^[a]	–	85	–
Cn1nnnc1C(=NOCc1csc(NC(=O)C2CC(c3c(F)cccc3Cl)=NO2)n1)c1ccccc1 (stereo not drawn) [Example 20]	3.44^[a]	–	93	–
COc1ccc(C2=NOC(C(=O)Nc3nc(CON=C(c4ccccc4)c4nnnn4C)cs3)C2)cc1 (stereo not drawn) [Example 21]	3.25^[a]	–	85	–
Cc1nnnn1C(=NOCc1csc(NC(=O)C2CC(c3c(F)cccc3Cl)=NO2)n1)c1ccccc1 (stereo not drawn) [Example 22]	3.48^[a]	–	90	–
COc1ccc(C2=NOC(C(=O)Nc3nc(CON=C(c4ccccc4)n4nnnc4C)cs3)C2)cc1 (stereo not drawn) [Example 23]	3.29^[a]	–	–	–
Cc1nnnn1C(=NOCc1csc(NC(=O)C2CC(c3cc(F)ccc3F)=NO2)n1)c1ccccc1 (stereo not drawn) [Example 24]	3.46^[a]	–	93	–
Cc1nnnn1C(=NOCc1csc(NC(=O)C2CC(C(C)C)=NO2)n1)c1ccccc1 (stereo not drawn) [Example 25]	2.96^[a]	–	85	–
CCC1=NOC(C(=O)Nc2nc(CON=C(c3ccccc3)n3nnnc3C)cs2)C1 (stereo not drawn) [Example 26]	2.68^[a]	–	–	–
CC1=NOC(C(=O)Nc2nc(CON=C(c3ccccc3)n3nnnc3C)cs2)C1 (stereo not drawn) [Example 27]	2.42^[a]	–	–	–
Cc1nnnn1C(=NOCc1csc(NC(=O)C2CC(c3ccccc3Cl)=NO2)n1)c1ccccc1 (stereo not drawn) [Example 28]	3.55^[a]	–	90	–

— patent publication US20140206726A1 (priority 2011, published 2014)
